Like-named read-outs stand apart in the source and are kept apart here.
Experiments:
[1] = test system: HDAC enzymes (HeLa nuclear extract, mixed-HDAC isoforms); assay: Fluor-de-Lys HDAC activity assay kit, HeLa nuclear extract as source of HDAC enzymes; type: biochemical, human; conditions: compounds at 100 µM
Experimental: The in vitro HDAC inhibitions of the obtained compounds were carried out with the assay kit containing mixed-HDAC isoforms. […] Therefore, the results were not fully related. However, compounds with good binding affinities should have the potential to be specific HDAC inhibitors for each isoform.
The semi-synthetic derivatives were evaluated for their ability to inhibit HDAC enzymes. Inhibition of HDAC activity in vitro was assessed using the Fluor-de-Lys HDAC activity assay kit (Biomol, Enzo Life Sciences International, Inc., Farmingdale, NY, USA). The HeLa nuclear extract provided with the kit was used as a source of HDAC enzymes for the in vitro study. TSA was used as the positive control. The HeLa nuclear extract, substrate, buffer and inhibitors were incubated. Deacetylation of the substrate was performed next by adding a developer to generate a fluorophore. The spectra Max Gemini XPS microplate spectrofluorometer (Molecular Devices, San Jose, CA, USA) was used to measure fluorescence signal with excitation at 360 nm and emission at 460 nm. A decrease in fluorescence signal indicated an inhibition of HDAC activity. Trichostatin A (TSA) was used as a positive control. All experiments were carried out in triplicate.

[2] = test system: human cervical cancer (HeLa) cells; assay: MTT assay, HeLa cells; type: cell-based; conditions: read-out: IC50 Values (Mean ± SD; n = 3), HeLa cells
Experimental: (§1) The MTT reduction assay was performed with non-cancer (Vero), human cervical cancer (HeLa), human colon cancer (HCT116), human breast adenocarcinoma cancer (MCF-7), and cholangiocarcinoma (H-69 […], KKU-100 and KKU-M213B) cell lines according to the previously described method. Briefly, cells were seeded in 96-well plates. The next day, cells were exposed to the selected compounds at various concentrations and incubated for 24, 48 and 72 h. After incubation, the culture medium was exchanged with 110 µL of MTT (0.5 mg/mL in PBS medium) and further incubated for 2 h. The amount of MTT formazan product was determined after dissolving in DMSO by measuring its absorbance with a microplate reader (Bio-Rad Laboratories, Hercules, CA, USA) at a test wavelength of 550 nm and a reference wavelength of 655 nm. The cell viability was expressed as a percentage of the viable cells of control culture conditions, and the IC50 values of each group were calculated.

[3] = test system: human colon cancer (HCT116) cells; assay: MTT assay, HCT116 cells; type: cell-based; conditions: read-out: IC50 Values (Mean ± SD; n = 3)
Experimental: as §1

[4] = test system: human breast adenocarcinoma cancer (MCF-7) cells; assay: MTT assay, MCF-7 cells; type: cell-based; conditions: read-out: IC50 Values (Mean ± SD; n = 3)
Experimental: as §1

H-69 cells = assay: MTT assay, H-69 cells; type: cell-based; conditions: read-out: IC50 Values (Mean ± SD; n = 3)
Experimental: as §1

[5] = test system: cholangiocarcinoma KKU-100 cells; assay: MTT assay, KKU-100 cells; type: cell-based, human; conditions: read-out: IC50 Values (Mean ± SD; n = 3)
Experimental: as §1

[6] = test system: cholangiocarcinoma KKU-M213B cells; assay: MTT assay, KKU-M213B cells; type: cell-based, human; conditions: read-out: IC50 Values (Mean ± SD; n = 3)
Experimental: as §1

CCCCCC1CC(CCc2ccc(O)c(OC)c2)=NN1c1ccc(F)cc1 (stereo not shown) [Compound 5f, 4-(2-(1-(4-fluorophenyl)-5-pentyl-4,5-dihydro-1H-pyrazol-3-yl)ethyl)-2-methoxyphenol]
%HDAC Inhibition [1]: 77%

CCCCCC1CC(CCc2ccc(O)c(OC)c2)=NN1c1cccc([N+](=O)[O-])c1 (stereo not shown) [Compound 5i, 2-methoxy-4-(2-(1-(3-nitrophenyl)-5-pentyl-4,5-dihydro-1H-pyrazol-3-yl)ethyl)phe nol]
%HDAC Inhibition [1]: 77%

CCCCC/C=C/C(CCc1ccc(O)c(OC)c1)=N\NC1=NCC=N1 [Compound 4e, 4-((3Z,4E)-3-(2-(4H-Imidazol-2-yl)hydrazono)dec-4-en-1-yl)-2-methoxyphenol]
%HDAC Inhibition [1]: 73%

CCCCC/C=C/C(CCc1ccc(O)c(OC)c1)=N\N [Compound 4a, 4-((3Z,4E)-3-Hydrazonodec-4-en-1-yl)-2-methoxyphenol]
%HDAC Inhibition [1]: 73%

10-(4-Hydroxy-3-methoxyphenyl)-6-((2-hydroxyphenyl)amino)decan-8-one [Compound 6b]
%HDAC Inhibition [1]: 64%

N.N.[Cl][Pt][Cl] [Cisplatin, reference compound]
IC50 ([2]; 24 h): 17.1 ± 1 µM | IC50 ([2]; 48 h): 9.97 ± 0.34 µM | IC50 ([2]; 72 h): 6.45 ± 0.12 µM | IC50 ([3]; 24 h): 21 ± 2.56 µM | IC50 ([3]; 48 h): 7.61 ± 0.61 µM | IC50 ([3]; 72 h): 4.98 ± 0.77 µM | IC50 ([4]; 24 h): 29.2 ± 1.35 µM | IC50 ([4]; 48 h): 13.8 ± 0.54 µM | IC50 ([4]; 72 h): 10.4 ± 0.25 µM | IC50 (H-69 cells; 24 h): > 20 µM | IC50 (H-69 cells; 48 h): > 20 µM | IC50 (H-69 cells; 72 h): 15.8 ± 0.35 µM | IC50 ([5]; 24 h): 17.32 ± 0.12 µM | IC50 ([5]; 48 h): 11.2 ± 0.14 µM | IC50 ([5]; 72 h): 7.57 ± 0.07 µM | IC50 ([6]; 24 h): > 20 µM | IC50 ([6]; 48 h): 18.6 ± 0.57 µM | IC50 ([6]; 72 h): 13 ± 0.61 µM

CCCCCC1CC(CCc2ccc(O)c(OC)c2)=NN1c1ccccc1C (stereo not shown) [Compound 5b, 2-methoxy-4-(2-(5-pentyl-1-(o-tolyl)-4,5-dihydro-1H-pyrazol-3-yl)ethyl)phenol]
%HDAC Inhibition [1]: 56%

CCCCCC1CC(CCc2ccc(O)c(OC)c2)=NN1c1ccccc1 (stereo not shown) [Compound 5a, 2-methoxy-4-(2-(5-pentyl-1-phenyl-4,5-dihydro-1H-pyrazol-3-yl)ethyl)phenol]
%HDAC Inhibition [1]: 74%

10-(4-Hydroxy-3-methoxyphenyl)-6-(phenylamino)decan-8-one [Compound 6c]
%HDAC Inhibition [1]: 53%

CCCCCC1CC(CCc2ccc(O)c(OC)c2)=NN1c1ccc(Cl)cc1 (stereo not shown) [Compound 5h, 4-(2-(1-(4-chlorophenyl)-5-pentyl-4,5-dihydro-1H-pyrazol-3-yl)ethyl)-2-methoxyphenol]
%HDAC Inhibition [1]: 68%

CC(/C=C/C(=O)NO)=C\[C@@H](C)C(=O)c1ccc(N(C)C)cc1 [TSA, Trichostatin A, reference compound]
%HDAC Inhibition [1]: 92%
